Test system in the first series: not listed separately
The series can be described thus: Blood calcium level-elevation effect, oral administration to rats. Format: in vivo. The following applies: ratio to 1α,25-dihydroxyvitamin D3. The source says: For example, the blood calcium level-elevation effects of compounds of the present invention in oral administration to rats, which are compared with that of 1 α,25-dihydroxyvitamin D3, are as shown below: • Compound No. 3105c, 1/>100 • Compound No.3405, 1/>100 • Compound No. 5102, 1/259 • Compound No. 5107, 1/11.
Turning to `C=C1/C(=C\C=C2/CCC[C@@]3(C)C2CC[C@@H]3[C@H](C)CCC[C@@](C)(O)C(=O)N(C)C)C[C@@H](O)C[C@@H]1O` (some centres unmarked) [Compound No. 5102], the “blood calcium level-elevation effect compared with that of 1α,25-dihydroxyvitamin D3” value is 1/259. In the case of `C=C1/C(=C\C=C2/CCC[C@@]3(C)C2CC[C@@H]3[C@H](C)CCC[C@@](C)(O)C(C)=O)C[C@@H](O)C[C@@H]1O` (some centres unmarked) [Compound No. 5107], the “blood calcium level-elevation effect compared with that of 1α,25-dihydroxyvitamin D3” value is on record as 1/11.

A further series has as its system hamster LPS-induced pneumonia model. The series can be described thus: Neutrophilic infiltration suppressing effect, hamster LPS-induced pneumonia model. Format: in vivo, golden hamster. The following applies: Mesocricetus auratus, Neutrophil, inhaled or nasal; dose 4 μg/kg, administered infratracheally just after LPS inhalation; neutrophils in washing after 24 hr; read-out: % Suppression (number of neutrophils, based on the control). The protocol: A male golden hamster was placed in an inhalation chamber (volume: 12 liter) and allowed to inhale LPS (nebulizer filled concentration: 2.0 mg/ml) generated by an ultrasonic nebulizer for 30 min to cause pneumonia. Just after the inhalation of the LPS, a treating agent of the present invention was administered infratracheally at a dosage of 1 to 20 μg/kg under halothane anesthesia. After 24 hr, tracheal branches and pulmonary alveoli were washed, and the number of neutrophils in the washing was determined. Using the number of neutrophils obtained in the absence of the treating agent of the present invention as the control, the decreasing rates of the numbers of neutrophils were expressed in terms of percent suppression based on the control.
`C=C1/C(=C\C=C2/CCC[C@@]3(C)C2CC[C@@H]3[C@H](C)CC2CC(C)(C)C(=O)O2)C[C@@H](O)C[C@@H]1O` (some centres unmarked) [2102a]: the inhibition in vivo at 0.004 mg/kg is over 40%. As for `C=C1/C(=C\C=C2/CCC[C@@]3(C)C2CC[C@@H]3[C@H](C)CC2CC3(CC3)C(=O)O2)C[C@@H](O)C[C@@H]1O` (some centres unmarked) [2105a], the inhibition in vivo at 0.004 mg/kg was over 40%. On the same count and under the same terms, next, `C=C1/C(=C\C=C2/CCC[C@@]3(C)C2CC[C@@H]3[C@H](C)/C=C2\CCC(C)(F)C2=O)C[C@@H](O)C[C@@H]1O` (some centres unmarked) [3105d]: over 40%; `C=C1/C(=C\C=C2/CCC[C@@]3(C)C2CC[C@@H]3[C@H](C)CC2CCC(=O)C2)C[C@@H](O)C[C@@H]1O` (some centres unmarked) [4101a]: 20 to 40%. As to `C=C1/C(=C\C=C2/CCC[C@@]3(C)C2CC[C@@H]3C(C)/C=C2\CCC(=O)C2(C)O)C[C@@H](O)C[C@@H]1O` (some centres unmarked) [4203b], the inhibition in vivo at 0.004 mg/kg lay within 20 to 40%. For the compound `C=C1/C(=C\C=C2/CCC[C@@]3(C)C2CC[C@@H]3[C@H](C)C[C@H]2C=C(C)C(=O)O2)C[C@@H](O)C[C@@H]1O` (some centres unmarked) [Compound No. 1107b], the inhibition in vivo at 0.004 mg/kg is under 20%. On the same count and under the same terms, under `C=C1/C(=C\C=C2/CCC[C@@]3(C)C2CC[C@@H]3[C@H](C)/C=C2\CCN(C)C2=O)C[C@@H](O)C[C@@H]1O` (some centres unmarked) [Compound No. 3405] stands over 40%.

The series is the same for the next values; noted with them: Mesocricetus auratus, Neutrophil, inhaled or nasal; dose 20 μg/kg, administered infratracheally just after LPS inhalation; neutrophils in washing after 24 hr; read-out: % Suppression (number of neutrophils, based on the control).
For the compound `C=C1/C(=C\C=C2/CCC[C@@]3(C)C2CC[C@@H]3[C@H](C)CC2=CC(=O)CC2)C[C@@H](O)C[C@@H]1O` (some centres unmarked) [Compound No. 4301], the inhibition in vivo at 0.02 mg/kg was under 20%. On the same count and under the same terms, under `C=C1/C(=C\C=C2/CCC[C@@]3(C)C2CC[C@@H]3[C@H](C)CCC[C@@](C)(O)C(=O)N(C)C)C[C@@H](O)C[C@@H]1O` (some centres unmarked) [Compound No. 5102] stands over 40%; under `C=C1/C(=C\C=C2/CCC[C@@]3(C)C2CC[C@@H]3[C@H](C)CCC[C@@](C)(O)C(=O)N2CCCCC2)C[C@@H](O)C[C@@H]1O` (some centres unmarked) [Compound No. 5106], 20 to 40%. The same measure, in the same setting: under `C=C1/C(=C\C=C2/CCC[C@@]3(C)C2CC[C@@H]3[C@H](C)CCC[C@@](C)(O)C(C)=O)C[C@@H](O)C[C@@H]1O` (some centres unmarked) [Compound No. 5107] stands over 40%; under `C=C1/C(=C\C=C2/CCC[C@@]3(C)C2CC[C@@H]3[C@H](C)CCC[C@@](C)(O)C(C)(C)O)C[C@@H](O)C[C@@H]1O` (some centres unmarked) [compound 5109], 20 to 40%.

(Values after patent publication US6960573B2, “Vitamin D3 derivative and treating agent for inflammatory respiratory disease using same” (Teijin Limited, priority 1998, dated 2005).)
